Results: patent US20040009195A1, “Modified sialic acid vaccines” (priority 2003, published 2004)

System: SK-Mel-28 human melanoma cells
Experiment: Expression of modified GD3 after incubation with modified precursors (flow cytometry, CE-MS)
Assay type: cell-based
Conditions: 1 mg/ml precursor concentration; in agreement with flow cytometry
Description: SK-Mel-28 human melanoma cells normally expressing GD3 were incubated with modified sialic acid precursors. The modified sialic acid precursors used were N-acylated Mannosamines(“ManNAc”), including: N-propionyl mannosamine (“ManNPr”), N-butyril mannosamine (“ManNBu”), and N-benzoyl mannosamine (“ManNBz”).
The incorporation and metabolism of the surface GD3 antigen were also investigated. […] Modified GD3 on SK-Mel-28 cells in vitro was still found 10 days after removal of precursors from the growth medium, when two populations of antigens, unmodified and modified GD3 were detected by mAb R24 and respective antiserum.
The relative quantity of modified and unmodified GD3 expressed on the SK-Mel-28 was analysed by capillary electrophoresis-mass spectroscopy (“CE-MS”). The glycolipids extracted from cells grown in various concentrations of ManNBu were separated by capillary electrophoresis and negative charged glycolipids were detected. GD3 was the dominant ganglioside found in SK-Mel-28 cells. When ManNBu was added to the medium, the modified GD3 was biosynthesized and expressed.

CCCC(=O)N[C@@H]1C(O)O[C@H](CO)[C@@H](O)[C@@H]1O (stereo partly shown) [ManNBu, N-butyril mannosamine]
Relative expression of modified GD3 by CE-MS: well expressed
